Measurements from patent US20200270237A1 (priority 2017, published 2020).
Read-outs that look alike come from different tables or passages of the source.

Tests used:
human μ-opioid receptor = human μ-opioid receptor (Homo sapiens, UniProt P35372); experiment: biochemical; assay type: binding
[1] = biological target: Human α2δ-1 Subunit of Cav2.2 Calcium Channel (Homo sapiens, UniProt P54289); experiment: biochemical; assay type: binding
[2] = read-out: Ki (nM) alpha2delta Hum

Chain of human μ-opioid receptor (P35372 whole entry): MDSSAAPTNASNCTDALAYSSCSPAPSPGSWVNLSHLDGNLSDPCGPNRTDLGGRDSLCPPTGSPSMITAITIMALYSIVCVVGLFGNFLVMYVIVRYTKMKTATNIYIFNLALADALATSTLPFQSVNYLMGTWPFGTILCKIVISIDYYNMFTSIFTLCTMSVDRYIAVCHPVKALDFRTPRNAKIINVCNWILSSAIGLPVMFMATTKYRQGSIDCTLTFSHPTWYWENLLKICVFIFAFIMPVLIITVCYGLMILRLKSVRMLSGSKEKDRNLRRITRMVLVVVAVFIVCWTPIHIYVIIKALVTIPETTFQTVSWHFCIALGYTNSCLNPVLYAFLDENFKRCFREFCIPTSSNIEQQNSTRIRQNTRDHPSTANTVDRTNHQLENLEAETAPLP
Chain of Human α2δ-1 Subunit of Cav2.2 Calcium Channel (P54289 25-1103): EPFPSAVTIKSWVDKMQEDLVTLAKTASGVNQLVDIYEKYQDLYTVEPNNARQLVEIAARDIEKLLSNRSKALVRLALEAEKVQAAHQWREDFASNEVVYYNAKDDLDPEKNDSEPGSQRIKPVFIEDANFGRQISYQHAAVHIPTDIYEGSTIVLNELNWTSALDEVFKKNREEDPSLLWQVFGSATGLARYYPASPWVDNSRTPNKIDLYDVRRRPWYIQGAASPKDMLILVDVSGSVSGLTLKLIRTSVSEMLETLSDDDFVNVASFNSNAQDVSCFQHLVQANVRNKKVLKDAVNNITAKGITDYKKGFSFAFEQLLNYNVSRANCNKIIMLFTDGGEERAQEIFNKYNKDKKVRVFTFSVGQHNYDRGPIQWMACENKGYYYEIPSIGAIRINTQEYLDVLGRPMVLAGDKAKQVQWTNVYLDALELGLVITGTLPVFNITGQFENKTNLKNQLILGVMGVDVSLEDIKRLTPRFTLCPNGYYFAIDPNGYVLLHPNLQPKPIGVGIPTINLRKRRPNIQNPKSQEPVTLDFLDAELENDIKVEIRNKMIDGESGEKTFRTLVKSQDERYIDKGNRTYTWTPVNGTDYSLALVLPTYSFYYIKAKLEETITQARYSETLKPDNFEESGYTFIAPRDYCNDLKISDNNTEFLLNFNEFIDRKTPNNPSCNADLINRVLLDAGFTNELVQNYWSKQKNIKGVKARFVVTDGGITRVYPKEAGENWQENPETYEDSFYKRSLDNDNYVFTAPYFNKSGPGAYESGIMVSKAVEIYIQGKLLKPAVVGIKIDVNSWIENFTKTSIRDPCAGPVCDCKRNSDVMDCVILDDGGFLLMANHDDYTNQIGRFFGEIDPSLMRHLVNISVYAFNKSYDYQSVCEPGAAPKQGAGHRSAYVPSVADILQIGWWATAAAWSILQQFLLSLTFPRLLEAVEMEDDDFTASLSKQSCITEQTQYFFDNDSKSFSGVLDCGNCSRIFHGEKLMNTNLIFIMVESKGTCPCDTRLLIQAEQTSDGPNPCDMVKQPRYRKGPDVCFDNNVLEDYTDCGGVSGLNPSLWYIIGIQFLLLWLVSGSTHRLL

Ki [1, 2]	SMILES	Ki [1]	also measured
> 3000 nM	CC[C@@]1(N2CCN(Cc3cccc(CO[C@H](CCNC)c4ccccc4)c3)CC2)CCOC(C)(C)C1 [Example 30, (R)-3-((3-((4-((R)-4-ethyl-2,2-dimethyltetrahydro-2H-pyran-4-yl)piperazin-1-yl)methyl)benzyl)oxy)-N-methyl-3-phenylpropan-1-amine]	–	–
500 to 3000 nM	CC[C@]1(N2CCN(Cc3cccc(CO[C@H](CCNC)c4ccccc4)c3)CC2)CCOC(C)(C)C1 [Example 31, (R)-3-((3-((4-((S)-4-ethyl-2,2-dimethyltetrahydro-2H-pyran-4-yl)piperazin-1-yl)methyl)benzyl)oxy)-N-methyl-3-phenylpropan-1-amine]	–	–
> 3000 nM	CNCCC(Oc1cccc(N2CCCCC2=O)c1)c1ccccc1 (centres unmarked) [Example 33, 1-(3-(3-(Methylamino)-1-phenylpropoxy)phenyl)piperidin-2-one]	–	–
> 3000 nM	CNCCC(Oc1cccc(N2CCCCC2=O)c1)c1cccs1 (centres unmarked) [Example 34, 1-(3-(3-(Methylamino)-1-(thiophen-2-yl)propoxy)phenyl)piperidin-2-one]	–	–
500 to 3000 nM	CNCCC(Oc1cccc(N2CCN(C)CC2)c1)c1ccccc1 (centres unmarked) [Example 35, N-methyl-3-(3-(4-methylpiperazin-1-yl)phenoxy)-3-phenylpropan-1-amine]	–	–
> 3000 nM	CNCCC(Oc1cccc(N2CCN(C)CC2=O)c1)c1cccs1 (centres unmarked) [Example 36, 4-Methyl-1-(3-(3-(methylamino)-1-(thiophen-2-yl)propoxy)phenyl)piperazin-2-one]	–	–
500 to 3000 nM	CNCCC(OCc1cccc(N2CCCCC2=O)c1)c1ccccc1 (centres unmarked) [Example 38, 1-(3-((3-(Methylamino)-1-phenylpropoxy)methyl)phenyl)piperidin-2-one]	–	–
500 to 3000 nM	CNCCC(OCc1cccc(N2CCCCC2=O)c1)c1cccs1 (centres unmarked) [Example 39, 1-(3-((3-(Methylamino)-1-(thiophen-2-yl)propoxy)methyl)phenyl)piperidin-2-one]	–	–
500 to 3000 nM	CNCCC(OCc1cccc(N2CCN(C)CC2)c1)c1ccccc1 (centres unmarked) [Example 40, N-methyl-3-((3-(4-methylpiperazin-1-yl)benzyl)oxy)-3-phenylpropan-1-amine]	–	–
> 3000 nM	CNCCC(OCc1cccc(N2CCNc3ccccc32)c1)c1ccccc1 (centres unmarked) [Example 47, 3-((3-(3,4-Dihydroquinoxalin-1(2H)-yl)benzyl)oxy)-N-methyl-3-phenylpropan-1-amine]	–	Ki (human μ-opioid receptor; read-out: MU Ki): > 1 µM
500 to 3000 nM	CNCCC(OCc1cccc(N2CCC(N(C)C)CC2)c1)c1ccccc1 (centres unmarked) [Example 48, N,N-dimethyl-1-(3-((3-(methylamino)-1-phenylpropoxy)methyl)phenyl)piperidin-4-amine]	–	–
> 3000 nM	CNCCC(OCc1ccc(N2CCC(c3ccccc3)(N(C)C)CC2)cc1)c1cccs1 (centres unmarked) [Example 49, N,N-dimethyl-1-(4-((3-(methylamino)-1-(thiophen-2-yl)propoxy)methyl)phenyl)-4-phenylpiperidin-4-amine]	–	–
500 to 3000 nM	CNCC[C@H](Oc1ccc(CN2CCc3ccccc3C2=O)cc1)c1cccs1 [Example 50, (S)-(4-(3-(methylamino)-1-(thiophen-2-yl)propoxy)benzyl)-3,4-dihydroisoquinolin-1(2H)-one]	–	–
500 to 3000 nM	CNCC[C@H](Oc1ccc(CN2CCn3cccc3C2=O)cc1)c1cccs1 [Example 53, (S)-2-(4-(3-(methylamino)-1-(thiophen-2-yl)propoxy)benzyl)-3,4-dihydropyrrolo[1,2-a]pyrazin-1(2H)-one]	–	–
> 3000 nM	CNCCC(Oc1ccc(C(=O)N2CCC(c3ccccc3)(N(C)C)CC2)cc1)c1cccs1 (centres unmarked) [Example 56, (4-(Dimethylamino)-4-phenylpiperidin-1-yl)(4-(3-(methylamino)-1-(thiophen-2-yl)propoxy)phenyl)methanone]	–	–

The next lines start with the compound.

SMILES	Ki [1, 2]	Ki [1]	also measured
CNCCC(OCc1cccc(CN2CCC(c3ccccc3)(N(C)C)CC2)c1)c1ccccc1 (centres unmarked) [Example 25]	–	500 to 3000 nM	Ki (human μ-opioid receptor): < 0.1 µM
CNCC[C@@H](OCc1cccc(CN2CCC(c3ccccc3)(N(C)C)CC2)c1)c1ccccc1 [Example 26, (R)-N,N-dimethyl-1-(3-((3-(methylamino)-1-phenylpropoxy)methyl)benzyl)-4-phenylpiperidin-4-amine]	–	500 to 3000 nM	Ki (human μ-opioid receptor): < 0.1 µM
CNCC[C@H](OCc1cccc(CN2CCC(c3ccccc3)(N(C)C)CC2)c1)c1ccccc1 [Example 27, (S)-N,N-dimethyl-1-(3-((3-(methylamino)-1-phenylpropoxy)methyl)benzyl)-4-phenylpiperidin-4-amine]	–	> 3000 nM	Ki (human μ-opioid receptor): < 0.1 µM
CNCCC(OCc1cccc(N2CCc3ccccc3C2=O)c1)c1cccs1 (centres unmarked) [Example 32, 2-(3-((3-(Methylamino)-1-(thiophen-2-yl)propoxy)methyl)phenyl)-3,4-dihydroisoquinolin-1(2H)-one]	–	500 to 3000 nM	Ki (human μ-opioid receptor): 0.1 to 0.5 µM
CNCCC(Oc1cccc(N2CCN(C)CC2)c1)c1cccs1 (centres unmarked) [Example 37, N-methyl-3-(3-(4-methylpiperazin-1-yl)phenoxy)-3-(thiophen-2-yl)propan-1-amine]	500 to 3000 nM	–	–
CNCCC(OCc1cccc(N2CCN(C)CC2=O)c1)c1ccccc1 (centres unmarked) [Example 41, 4-Methyl-1-(3-((3-(methylamino)-1-phenylpropoxy)methyl)phenyl)piperazin-2-one]	> 3000 nM	–	–
CNCCC(Oc1cccc(N2CCNCC2)c1)c1cccs1 (centres unmarked) [Example 42, N-methyl-3-(3-(piperazin-1-yl)phenoxy)-3-(thiophen-2-yl)propan-1-amine]	500 to 3000 nM	–	–
CNCCC(Oc1cccc(N2CCC(c3ccccc3)(N(C)C)CC2)c1)c1cccs1 (centres unmarked) [Example 43, N,N-dimethyl-1-(3-(3-(methylamino)-1-(thiophen-2-yl)propoxy)phenyl)-4-phenylpiperidin-4-amine]	–	–	Ki ([1]; Table 1, human α2δ-1 enriched membranes, 15 nM [3H]-Gabapentin, read-out: Ki (nM) alpha2delta Hum): 500 to 3000 nM; Ki ([1]; Table 2 (dual compounds), human α2δ-1 enriched membranes, 15 nM [3H]-Gabapentin, read-out: Ki (nM) alpha2delta Hum): 500 to 3000 nM
CNCCC(Oc1cccc(N2C[C@@H](C)N[C@@H](C)C2)c1)c1cccs1 (stereo partly drawn) [Example 44, 3-(3-((3S,5R)-3,5-dimethylpiperazin-1-yl)phenoxy)-N-methyl-3-(thiophen-2-yl)propan-1-amine]	–	100 to 500 nM	–
CNCCC(Oc1ccc(CN2CCC(c3ccccc3)(N(C)C)CC2)cc1)c1cccs1 (centres unmarked) [Example 51, N,N-dimethyl-1-(4-(3-(methylamino)-1-(thiophen-2-yl)propoxy)benzyl)-4-phenylpiperidin-4-amine]	–	> 3000 nM	–
CNCCC(Oc1ccc(CN2CCN(C)CC2)cc1)c1cccs1 (centres unmarked) [Example 52, N-methyl-3-(4-((4-methylpiperazin-1-yl)methyl)phenoxy)-3-(thiophen-2-yl)propan-1-amine]	> 3000 nM	–	–
CNCCC(Oc1ccc(CN2CCCc3ccccc32)c(F)c1)c1cccs1 (centres unmarked) [Example 54, 3-(4-((3,4-Dihydroquinolin-1(2H)-yl)methyl)-3-fluorophenoxy)-N-methyl-3-(thiphen-2-yl)propan-1-amine]	–	> 3000 nM	–
CNCCC(Oc1ccc(CN2CCc3ccccc3C2)c(F)c1)c1cccs1 (centres unmarked) [Example 55, 3-(4-((3,4-Dihydroisoquinolin-2(1H)-yl)methyl)-3-fluorophenoxy)-N-methyl-3-(thiophen-2-yl)propan-1-amine]	–	> 3000 nM	–
CNCCC(Oc1ccc(CCN2CCC(c3ccccc3)(N(C)C)CC2)cc1)c1cccs1 (centres unmarked) [Example 57, N,N-dimethyl-1-(4-(3-(methylamino)-1-(thiophen-2-yl)propoxy)phenethyl)-4-phenylpiperidin-4-amine]	–	> 3000 nM	–
